Measurements: PMC10239507, “Development of allosteric and selective CDK2 inhibitors for contraception with negative cooperativity to cyclin binding” (Nature Communications, 2023)

Legend:
Test in all cases: biochemical
[1] = biological target: T1, 371 kinases (kinase named in each endpoint) (Homo sapiens, UniProt P78362); details: SRPK2
T1 construct: purchased Reaction Biology

[2] = biological target: T2, 371 kinases (kinase named in each endpoint) (Homo sapiens, UniProt Q9HC98); details: NEK6
T2 construct: purchased Reaction Biology

[3] = biological target: T3, 371 kinases (kinase named in each endpoint) (Homo sapiens, UniProt Q9H2K8); details: TAOK3/JIK
T3 construct: purchased Reaction Biology

[4] = biological target: T4, 371 kinases (kinase named in each endpoint) (Homo sapiens, UniProt P31749); details: AKT1
T4 construct: purchased Reaction Biology

[5] = biological target: T5, 371 kinases (kinase named in each endpoint) (Homo sapiens, UniProt Q56UN5); details: YSK4/MAP3K19
T5 construct: purchased Reaction Biology

[6] = biological target: T6, 371 kinases (kinase named in each endpoint) (Homo sapiens, UniProt P28482); details: ERK2/MAPK1
T6 construct: purchased Reaction Biology

[7] = biological target: T7, 371 kinases (kinase named in each endpoint) (Homo sapiens, UniProt Q9Y4K4); details: KHS/MAP4K5
T7 construct: purchased Reaction Biology

[8] = biological target: T8, 371 kinases (kinase named in each endpoint) (Homo sapiens, UniProt Q15303); details: ERBB4/HER4
T8 construct: purchased Reaction Biology

[9] = biological target: T9, 371 kinases (kinase named in each endpoint) (Homo sapiens, UniProt P22694); details: PKACB
T9 construct: purchased Reaction Biology

[10] = biological target: T10, 371 kinases (kinase named in each endpoint) (Homo sapiens, UniProt Q8WXR4); details: MYO3B
T10 construct: purchased Reaction Biology

[11] = biological target: T11, 371 kinases (kinase named in each endpoint) (Homo sapiens, UniProt P57059); details: SIK1
T11 construct: purchased Reaction Biology

[12] = biological target: T12, 371 kinases (kinase named in each endpoint) (Homo sapiens, UniProt Q9H093); details: SNARK/NUAK2
T12 construct: purchased Reaction Biology

[13] = biological target: T13, 371 kinases (kinase named in each endpoint) (Homo sapiens, UniProt Q04771); details: ALK2/ACVR1
T13 construct: purchased Reaction Biology

[14] = biological target: T14, 371 kinases (kinase named in each endpoint) (Homo sapiens, UniProt O75716); details: STK16
T14 construct: purchased Reaction Biology

[15] = biological target: T15, 371 kinases (kinase named in each endpoint) (Homo sapiens, UniProt Q8N752); details: CK1A1L
T15 construct: purchased Reaction Biology

[16] = biological target: T16, 371 kinases (kinase named in each endpoint) (Homo sapiens, UniProt P45985); details: MKK4
T16 construct: purchased Reaction Biology

[17] = biological target: T17, 371 kinases (kinase named in each endpoint) (Homo sapiens, UniProt P12931); details: C-SRC
T17 construct: purchased Reaction Biology

[18] = biological target: T18, 371 kinases (kinase named in each endpoint) (Homo sapiens, UniProt P07949); details: RET
T18 construct: purchased Reaction Biology

[19] = biological target: T19, 371 kinases (kinase named in each endpoint) (Homo sapiens, UniProt P09619); details: PDGFRB
T19 construct: purchased Reaction Biology

[20] = biological target: T20, 371 kinases (kinase named in each endpoint) (Homo sapiens, UniProt P06493)
T20 construct: purchased Reaction Biology

[21] = biological target: T21, 371 kinases (kinase named in each endpoint) (Homo sapiens, UniProt Q16513); details: PKN2/PRK2
T21 construct: purchased Reaction Biology

[22] = biological target: T22, 371 kinases (kinase named in each endpoint) (Homo sapiens, UniProt Q05513); details: PKCZETA
T22 construct: purchased Reaction Biology

[23] = biological target: T23, 371 kinases (kinase named in each endpoint) (Homo sapiens, UniProt P42685); details: FRK/PTK5
T23 construct: purchased Reaction Biology

[24] = biological target: T24, 371 kinases (kinase named in each endpoint) (Homo sapiens, UniProt P21709); details: EPHA1
T24 construct: purchased Reaction Biology

[25] = biological target: T25, 371 kinases (kinase named in each endpoint) (Homo sapiens, UniProt Q13557); details: CAMK2D
T25 construct: purchased Reaction Biology

[26] = biological target: T26, 371 kinases (kinase named in each endpoint) (Homo sapiens, UniProt Q8TDC3); details: BRSK1
T26 construct: purchased Reaction Biology

[27] = biological target: T27, 371 kinases (kinase named in each endpoint) (Homo sapiens, UniProt Q7KZI7); details: MARK2/PAR-1BA
T27 construct: purchased Reaction Biology

[28] = biological target: T28, 371 kinases (kinase named in each endpoint) (Homo sapiens, UniProt Q04759); details: PKCTHETA
T28 construct: purchased Reaction Biology

[29] = biological target: T29, 371 kinases (kinase named in each endpoint) (Homo sapiens, UniProt P21802); details: FGFR2
T29 construct: purchased Reaction Biology

[30] = biological target: T30, 371 kinases (kinase named in each endpoint) (Homo sapiens, UniProt P08922); details: ROS/ROS1
T30 construct: purchased Reaction Biology

[31] = biological target: T31, 371 kinases (kinase named in each endpoint) (Homo sapiens, UniProt O00506); details: STK25/YSK1
T31 construct: purchased Reaction Biology

[32] = biological target: T32, 371 kinases (kinase named in each endpoint) (Homo sapiens, UniProt Q15349); details: RSK3
T32 construct: purchased Reaction Biology

[33] = biological target: T33, 371 kinases (kinase named in each endpoint) (Homo sapiens, UniProt O94921); details: CDK14/CYCLIN Y (PFTK1)
T33 construct: purchased Reaction Biology

[34] = biological target: T34, 371 kinases (kinase named in each endpoint) (Homo sapiens, UniProt Q05655); details: PKCD
T34 construct: purchased Reaction Biology

[35] = biological target: T35, 371 kinases (kinase named in each endpoint) (Homo sapiens, UniProt Q07912); details: ACK1
T35 construct: purchased Reaction Biology

[36] = biological target: T36, 371 kinases (kinase named in each endpoint) (Homo sapiens, UniProt Q9Y6E0); details: MST3/STK24
T36 construct: purchased Reaction Biology

T20 sequence (P06493 whole entry): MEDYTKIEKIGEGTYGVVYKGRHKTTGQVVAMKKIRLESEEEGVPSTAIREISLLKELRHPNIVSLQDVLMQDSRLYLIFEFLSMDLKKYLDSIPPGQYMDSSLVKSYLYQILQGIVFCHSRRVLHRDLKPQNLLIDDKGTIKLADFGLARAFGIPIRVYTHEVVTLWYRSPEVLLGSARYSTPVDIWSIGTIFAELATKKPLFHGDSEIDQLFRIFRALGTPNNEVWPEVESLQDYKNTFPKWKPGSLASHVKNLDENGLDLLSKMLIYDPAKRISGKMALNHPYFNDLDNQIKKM
T17 sequence (P12931 whole entry): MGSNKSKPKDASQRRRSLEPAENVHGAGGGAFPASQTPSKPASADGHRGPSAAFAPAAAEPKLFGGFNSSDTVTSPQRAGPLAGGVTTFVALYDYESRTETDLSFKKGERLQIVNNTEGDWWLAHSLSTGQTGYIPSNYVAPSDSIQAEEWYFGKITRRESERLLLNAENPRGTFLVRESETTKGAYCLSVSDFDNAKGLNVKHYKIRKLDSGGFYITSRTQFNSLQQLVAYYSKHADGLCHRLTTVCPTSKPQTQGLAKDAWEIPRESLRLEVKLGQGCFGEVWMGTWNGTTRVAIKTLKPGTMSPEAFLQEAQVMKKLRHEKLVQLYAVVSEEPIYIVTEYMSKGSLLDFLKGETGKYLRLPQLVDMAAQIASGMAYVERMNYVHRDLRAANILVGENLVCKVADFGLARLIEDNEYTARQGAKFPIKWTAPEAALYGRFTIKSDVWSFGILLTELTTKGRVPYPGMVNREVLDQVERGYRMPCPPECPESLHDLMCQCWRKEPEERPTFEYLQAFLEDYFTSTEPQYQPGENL
T16 sequence (P45985 whole entry): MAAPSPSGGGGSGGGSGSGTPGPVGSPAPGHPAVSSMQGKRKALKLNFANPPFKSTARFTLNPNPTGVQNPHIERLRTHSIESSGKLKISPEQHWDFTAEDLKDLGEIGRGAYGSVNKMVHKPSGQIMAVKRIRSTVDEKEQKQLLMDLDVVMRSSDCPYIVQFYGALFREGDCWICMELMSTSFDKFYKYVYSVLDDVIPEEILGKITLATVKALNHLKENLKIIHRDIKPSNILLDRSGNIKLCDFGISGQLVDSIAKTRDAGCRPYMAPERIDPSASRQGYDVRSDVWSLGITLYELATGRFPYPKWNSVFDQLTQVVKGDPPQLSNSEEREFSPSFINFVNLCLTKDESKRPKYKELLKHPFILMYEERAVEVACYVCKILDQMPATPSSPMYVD
T11 sequence (P57059 whole entry): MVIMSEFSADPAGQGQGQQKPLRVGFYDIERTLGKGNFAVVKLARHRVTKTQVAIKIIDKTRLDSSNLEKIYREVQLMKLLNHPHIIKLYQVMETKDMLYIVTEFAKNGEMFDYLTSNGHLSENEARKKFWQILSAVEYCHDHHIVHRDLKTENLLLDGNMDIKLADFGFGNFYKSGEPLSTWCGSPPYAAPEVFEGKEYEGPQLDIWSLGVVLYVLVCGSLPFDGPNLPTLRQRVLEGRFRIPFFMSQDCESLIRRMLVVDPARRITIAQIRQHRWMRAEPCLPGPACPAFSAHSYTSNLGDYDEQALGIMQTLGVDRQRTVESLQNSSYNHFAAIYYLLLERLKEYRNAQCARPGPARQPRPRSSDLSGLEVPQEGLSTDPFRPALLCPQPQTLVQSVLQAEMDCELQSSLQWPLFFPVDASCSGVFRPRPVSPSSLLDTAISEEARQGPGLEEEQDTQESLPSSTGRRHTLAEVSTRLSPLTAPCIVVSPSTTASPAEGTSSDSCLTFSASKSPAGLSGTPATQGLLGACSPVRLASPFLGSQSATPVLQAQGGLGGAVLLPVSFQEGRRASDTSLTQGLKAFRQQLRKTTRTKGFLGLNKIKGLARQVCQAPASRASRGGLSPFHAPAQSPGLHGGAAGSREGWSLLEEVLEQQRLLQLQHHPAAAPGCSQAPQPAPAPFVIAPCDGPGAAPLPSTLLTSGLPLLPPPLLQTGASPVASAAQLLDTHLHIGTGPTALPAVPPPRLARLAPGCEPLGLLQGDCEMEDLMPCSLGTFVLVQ
T8 sequence (Q15303 26-1308): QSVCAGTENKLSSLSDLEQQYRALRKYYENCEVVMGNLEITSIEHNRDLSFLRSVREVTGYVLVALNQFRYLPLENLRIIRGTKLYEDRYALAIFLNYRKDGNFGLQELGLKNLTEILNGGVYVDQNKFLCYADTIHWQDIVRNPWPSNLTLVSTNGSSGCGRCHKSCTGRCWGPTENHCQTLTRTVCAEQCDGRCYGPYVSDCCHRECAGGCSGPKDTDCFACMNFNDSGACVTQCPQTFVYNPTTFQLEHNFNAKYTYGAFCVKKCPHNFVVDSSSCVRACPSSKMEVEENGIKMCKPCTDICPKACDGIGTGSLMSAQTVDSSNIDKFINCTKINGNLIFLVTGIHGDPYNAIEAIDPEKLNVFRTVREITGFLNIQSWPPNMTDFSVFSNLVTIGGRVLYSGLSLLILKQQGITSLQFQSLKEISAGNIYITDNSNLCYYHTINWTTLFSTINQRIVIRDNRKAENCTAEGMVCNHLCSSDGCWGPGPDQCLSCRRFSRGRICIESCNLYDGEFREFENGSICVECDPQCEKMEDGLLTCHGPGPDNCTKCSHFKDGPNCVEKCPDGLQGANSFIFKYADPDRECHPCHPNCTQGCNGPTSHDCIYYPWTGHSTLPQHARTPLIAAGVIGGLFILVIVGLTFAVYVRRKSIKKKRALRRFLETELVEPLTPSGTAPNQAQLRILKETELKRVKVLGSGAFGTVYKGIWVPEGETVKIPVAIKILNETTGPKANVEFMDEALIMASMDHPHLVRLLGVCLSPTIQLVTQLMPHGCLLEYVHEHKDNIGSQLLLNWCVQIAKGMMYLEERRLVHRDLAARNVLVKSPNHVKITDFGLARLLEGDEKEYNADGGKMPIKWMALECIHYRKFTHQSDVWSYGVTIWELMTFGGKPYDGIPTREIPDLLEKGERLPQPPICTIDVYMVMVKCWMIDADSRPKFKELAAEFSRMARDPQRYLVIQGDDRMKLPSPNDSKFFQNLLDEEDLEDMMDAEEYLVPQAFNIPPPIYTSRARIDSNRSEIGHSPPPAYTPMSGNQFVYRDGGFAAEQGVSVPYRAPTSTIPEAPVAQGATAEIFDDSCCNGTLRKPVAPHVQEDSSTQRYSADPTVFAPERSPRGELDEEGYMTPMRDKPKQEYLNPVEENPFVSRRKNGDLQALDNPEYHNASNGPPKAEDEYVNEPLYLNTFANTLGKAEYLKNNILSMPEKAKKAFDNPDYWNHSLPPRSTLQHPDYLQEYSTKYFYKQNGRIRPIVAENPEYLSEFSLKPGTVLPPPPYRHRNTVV
T7 sequence (Q9Y4K4 whole entry): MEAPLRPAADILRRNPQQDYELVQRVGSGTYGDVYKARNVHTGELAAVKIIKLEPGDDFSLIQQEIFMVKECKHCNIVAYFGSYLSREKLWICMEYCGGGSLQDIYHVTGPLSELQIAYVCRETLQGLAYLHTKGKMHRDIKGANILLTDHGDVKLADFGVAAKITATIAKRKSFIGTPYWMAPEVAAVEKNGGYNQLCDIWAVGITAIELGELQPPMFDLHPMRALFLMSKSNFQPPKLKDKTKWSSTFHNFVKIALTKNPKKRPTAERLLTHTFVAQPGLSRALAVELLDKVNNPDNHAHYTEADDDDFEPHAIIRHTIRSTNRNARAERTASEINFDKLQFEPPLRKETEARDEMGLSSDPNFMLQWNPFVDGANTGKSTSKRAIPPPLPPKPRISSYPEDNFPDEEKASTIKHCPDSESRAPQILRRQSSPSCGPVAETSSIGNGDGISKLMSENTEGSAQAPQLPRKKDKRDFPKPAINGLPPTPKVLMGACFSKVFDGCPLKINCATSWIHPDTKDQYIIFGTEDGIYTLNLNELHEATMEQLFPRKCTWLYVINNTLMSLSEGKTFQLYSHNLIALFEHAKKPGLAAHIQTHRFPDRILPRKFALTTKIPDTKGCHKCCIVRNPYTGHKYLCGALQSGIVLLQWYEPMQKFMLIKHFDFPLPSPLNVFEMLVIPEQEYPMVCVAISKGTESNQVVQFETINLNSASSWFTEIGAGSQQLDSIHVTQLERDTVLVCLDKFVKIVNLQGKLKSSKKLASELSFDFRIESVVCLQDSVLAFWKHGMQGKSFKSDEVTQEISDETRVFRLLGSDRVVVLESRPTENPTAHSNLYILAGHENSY
T12 sequence (Q9H093 whole entry): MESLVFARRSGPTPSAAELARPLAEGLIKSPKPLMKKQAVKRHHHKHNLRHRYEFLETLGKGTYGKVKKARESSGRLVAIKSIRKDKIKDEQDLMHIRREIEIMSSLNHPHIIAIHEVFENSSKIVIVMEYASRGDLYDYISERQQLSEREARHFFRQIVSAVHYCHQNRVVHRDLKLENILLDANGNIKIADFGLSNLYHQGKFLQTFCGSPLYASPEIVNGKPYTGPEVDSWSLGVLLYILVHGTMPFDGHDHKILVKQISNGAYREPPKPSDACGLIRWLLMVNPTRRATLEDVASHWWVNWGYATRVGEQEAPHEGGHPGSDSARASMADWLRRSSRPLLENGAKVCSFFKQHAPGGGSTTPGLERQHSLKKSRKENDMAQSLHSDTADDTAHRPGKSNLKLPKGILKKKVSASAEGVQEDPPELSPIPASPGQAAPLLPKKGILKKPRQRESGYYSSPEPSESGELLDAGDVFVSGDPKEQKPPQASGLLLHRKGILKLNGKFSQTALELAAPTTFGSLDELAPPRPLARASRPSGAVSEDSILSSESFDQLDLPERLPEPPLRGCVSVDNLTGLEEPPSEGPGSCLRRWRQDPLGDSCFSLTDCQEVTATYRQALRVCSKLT

## O=C(O)c1cc(C(F)(F)F)ccc1NCCc1c[nH]c2cc(Br)ccc12 [Compound 5, 2-((2-(6-Bromo-1H-indol-3-yl)ethyl)amino)−5-(trifluoromethyl)benzoic Acid]
[1]
  activity at 10 µM: 95.1%
[2]
  activity at 10 µM: 77.6 ± 0.1%
[3]
  activity at 10 µM: 83.3 ± 2.1%
[4]
  activity at 10 µM: 93.4 ± 0.2%
[5]
  activity at 10 µM: 110.3 ± 0.7%
[6]
  activity at 10 µM: 118 ± 3%
[7]
  activity at 10 µM: 72 ± 2.8%
[8]
  activity at 10 µM: 96.2 ± 1%
[9]
  activity at 10 µM: 93.4 ± 0.4%
[10]
  activity at 10 µM: 97.8 ± 1.5%
[11]
  activity at 10 µM: 69.3 ± 1%
[12]
  activity at 10 µM: 87.7 ± 2.3%
[13]
  activity at 10 µM: 74.1 ± 1.8%
[14]
  activity at 10 µM: 80.4 ± 1.1%
[15]
  activity at 10 µM: 90.8 ± 1.1%
[16]
  activity at 10 µM: 115 ± 4.5%
[17]
  activity at 10 µM: 95.1 ± 0.2%
[18]
  activity at 10 µM: 92.7 ± 3.3%
[19]
  activity at 10 µM: 92.5 ± 0.1%
[20]; CDK1/CYCLIN E
  activity at 10 µM: 60.2 ± 0.3%
[20]; CDK1/cyclin A
  activity at 10 µM: 95.4 ± 0.8%
[21]
  activity at 10 µM: 110 ± 1.7%
[22]
  activity at 10 µM: 126.6 ± 0.3%
[23]
  activity at 10 µM: 90.1 ± 1.1%
[24]
  activity at 10 µM: 102.2 ± 0.1%
[25]
  activity at 10 µM: 78.3 ± 3.4%
[26]
  activity at 10 µM: 77.2 ± 2.3%
[27]
  activity at 10 µM: 87.5 ± 0.7%
[28]
  activity at 10 µM: 95.5 ± 0.4%
[29]
  activity at 10 µM: 101.3 ± 0.5%
[30]
  activity at 10 µM: 94.7 ± 1.4%
[31]
  activity at 10 µM: 124 ± 1.4%
[32]
  activity at 10 µM: 87 ± 1.4%
[33]
  activity at 10 µM: 114 ± 1.5%
[34]
  activity at 10 µM: 54.7 ± 2.7%
[35]
  activity at 10 µM: 92 ± 0.4%
[36]
  activity at 10 µM: 104 ± 1.9%
